Where two headings read alike, the source gives them in different places.

The target of assay [1] is MET kinase (Homo sapiens (Human), UniProt P08581). The experiment in a line: Kinase inhibitory activity, MET. The assay is classed as biochemical. Particulars: 33P-ATP filter assay, about 40 minutes at room temperature.
Method: The kinase inhibitory activity was measured by the following method:
The compound to be evaluated (DMSO solution) and Mg/ATP were added to proceed the reaction.
After about 40 minutes at room temperature, the reaction was stopped by the addition of 10 μL of 0.5% phosphoric acid.
10 μL of 0.5% reaction solution was spotted onto a P30 filtermat.
Washed 4 times for about 4 minutes in 0.425% phosphoric acid. Washed once in methanol, and then dried and analyzed by scintillation counting to measure IC50 value.
Assay [2] deals with Ba/F3 cell line expressing EGFR DEL19/T790M/C797S. Description: Inhibitory effect on cancer cell growth (MTT), Ba/F3 DEL19/T790M/C797S. The assay is classed as cell-based, Murine. Particulars: for IC50: read-out: DEL19/T790M/C797S (IC50); for inhibitory activity on C797S mutant EGFR-expressed cancer cell lines, comparison in words: both Ba/F3 triple mutant lines of Table 2. The protocol: (§1) The inhibitory effect on the growth of a C797S-expressed triple mutant Ba/F3 cancer cell line was measured for the compounds obtained in the examples above. The kinase assay and anticancer efficacy activity using a Ba/F3 stable cell line were measured by the following method:
(§2) 1. […] All constructs were retroviral vectors and finally completed viral particles for infection.
(§3) 2. Construction of Ba/F3 stable cell lines: Murine lymphoid cells undergo IL-3 dependent growth. […] Briefly, each construct was infected into Ba/F3 cell lines, and after 48 hours, IL-3 was removed with media exchange and cells were cultured. However, puromycin selection was performed for wild type EGFR.
(§4) 3. Identification of Ba/F3 stable cell lines: All stable cell lines were subjected to western blotting to confirm the expression of each construct and EGFR activity (EGFR wild type and L858R were omitted).
(§5) 5. Anticancer effect verification by MTT assay: 2×10^3 cells were seeded in a 96-well plate. After 24 hours, each of the drugs was treated in a dose-dependent manner, incubated for 72 hours, reacted with 15 μL of MTT reagent for 4 hours, and then 100 μL of 10% SDS was added thereto and incubated for 24 hours. […] MTT results were analyzed by measuring IC50 values through prism software.

For assay [3], the system named is Ba/F3 cell line expressing EGFR L858R/T790M/C797S. Description: Inhibitory effect on cancer cell growth (MTT), Ba/F3 L858R/T790M/C797S. The assay is classed as cell-based, Murine. Particulars: read-out: L858R/T790M/C797S (IC50). The protocol:
as §1, §2, §3, §4, §5

The mark [4] stands for this setting: Mus musculus, BaF3, Ba/F3 stable cell line, MTT, 72 hours, GI50.
[5] abbreviates: Ba/F3 stable cell line, MTT, 72 hours, GI50.

Chain of MET kinase (P08581 25-1390): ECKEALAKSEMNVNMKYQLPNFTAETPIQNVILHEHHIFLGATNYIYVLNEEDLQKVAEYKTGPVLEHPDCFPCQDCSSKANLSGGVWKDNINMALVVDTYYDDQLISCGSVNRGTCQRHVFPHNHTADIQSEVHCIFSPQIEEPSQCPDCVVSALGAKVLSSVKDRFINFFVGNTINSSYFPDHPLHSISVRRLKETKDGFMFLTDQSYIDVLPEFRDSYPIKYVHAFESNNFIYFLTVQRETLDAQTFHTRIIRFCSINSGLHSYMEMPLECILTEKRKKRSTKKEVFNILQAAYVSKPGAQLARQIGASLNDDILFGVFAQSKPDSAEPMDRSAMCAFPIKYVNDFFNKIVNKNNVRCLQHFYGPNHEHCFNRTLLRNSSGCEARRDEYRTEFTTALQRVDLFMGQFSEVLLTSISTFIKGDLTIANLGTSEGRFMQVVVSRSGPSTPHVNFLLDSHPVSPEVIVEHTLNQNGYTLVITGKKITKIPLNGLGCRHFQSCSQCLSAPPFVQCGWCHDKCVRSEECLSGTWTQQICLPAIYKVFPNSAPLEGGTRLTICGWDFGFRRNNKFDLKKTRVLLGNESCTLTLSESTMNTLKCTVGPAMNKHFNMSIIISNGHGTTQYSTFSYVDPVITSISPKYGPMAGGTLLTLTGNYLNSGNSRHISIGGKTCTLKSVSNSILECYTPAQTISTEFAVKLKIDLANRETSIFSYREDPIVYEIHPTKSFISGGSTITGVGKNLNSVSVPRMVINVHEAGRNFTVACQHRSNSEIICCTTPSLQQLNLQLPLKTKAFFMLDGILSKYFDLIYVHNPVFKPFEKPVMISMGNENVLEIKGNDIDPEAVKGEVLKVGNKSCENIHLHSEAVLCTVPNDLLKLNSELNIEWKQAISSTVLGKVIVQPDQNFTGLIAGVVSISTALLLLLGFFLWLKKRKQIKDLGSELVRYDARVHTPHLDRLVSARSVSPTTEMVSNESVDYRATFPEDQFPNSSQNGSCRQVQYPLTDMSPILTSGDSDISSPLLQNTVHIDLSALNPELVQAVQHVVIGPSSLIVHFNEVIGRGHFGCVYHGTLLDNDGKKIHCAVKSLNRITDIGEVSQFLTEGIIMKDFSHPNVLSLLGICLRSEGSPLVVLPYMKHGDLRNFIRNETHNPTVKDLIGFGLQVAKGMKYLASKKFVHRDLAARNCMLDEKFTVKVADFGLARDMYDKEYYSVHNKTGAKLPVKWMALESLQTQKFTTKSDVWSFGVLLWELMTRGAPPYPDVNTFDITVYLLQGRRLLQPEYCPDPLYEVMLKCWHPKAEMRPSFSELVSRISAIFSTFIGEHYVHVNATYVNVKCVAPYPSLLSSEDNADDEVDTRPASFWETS

Turning to `COc1cc(N2CCC(N3CCN(C)CC3)CC2)ccc1Nc1ncc(Cl)c(Nc2ccccc2P(C)(C)=O)n1` [Brigatinib], the IC50 amounted to 70 nM in assay [1]; 560 nM in assay [2] (Mus musculus, BaF3, 72 h); 860 nM in assay [3] (Mus musculus, BaF3, 72 h). For the same compound, in assay [2], the “inhibitory activity on C797S mutant EGFR-expressed cancer cell lines, comparison in words” value is “very less active”.
With `COc1cc(N2CCC(N3CCN(C)CC3)CC2)ccc1Nc1ncc(Cl)c(Nc2ccccc2N(C)S(C)(=O)=O)n1` [Example 1, N-(2-((5-chloro-2-((2-methoxy-4-(4-(4-methylpiperazin-1-yl)piperidin-1-yl)phenyl)amino)pyrimidin-4-yl)amino)phenyl)-N-methylmethanesulfonamide], the IC50 in assay [1] is 1 nM; in assay [2] (setting [4]) it was 210 nM; in assay [3] (setting [4]), 160 nM.
Turning to `COc1cc(N2CCC(N3CCN(C)CC3)CC2)ccc1Nc1ncc(Cl)c(Nc2cc(F)ccc2N(C)S(C)(=O)=O)n1` [Example 2, N-(2-((5-chloro-2-((2-methoxy-4-(4-(4-methylpiperazin-1-yl)piperidin-1-yl)phenyl)amino)pyrimidin-4-yl)amino)-4-fluorophenyl)-N-methylmethanesulfonamide], the results for the IC50 in assay [2] (setting [4]) and in assay [3] (setting [4]) were 222 nM and 533 nM, respectively.
`COc1cc(N2CCC(N(C)C)CC2)ccc1Nc1ncc(Cl)c(Nc2ccccc2N(C)S(C)(=O)=O)n1` [Example 3, N-(2-((5-chloro-2-((4-(4-(dimethylamino)piperidin-1-yl)-2-methoxyphenyl)amino)pyrimidin-4-yl)amino)phenyl)-N-methylmethanesulfonamide]: the IC50 was found to be 323 nM in assay [2] (setting [4]) and 531 nM in assay [3] (setting [4]).
On to `COc1cc(C2CCNCC2)ccc1Nc1ncc(Cl)c(Nc2ccccc2NS(C)(=O)=O)n1` [TRE-069], for which the results for the IC50 in assay [1], in assay [2] (setting [5]) and in assay [3] (setting [5]) were 120 nM, 5000 nM and 4000 nM, respectively. The “inhibitory activity on C797S mutant EGFR-expressed cancer cell lines, comparison in words” value in assay [2] was “very less active”.
